# Laboratory results taken from US20240216392A1, “METHODS OF TREAMENT” (Arena Pharmaceuticals, Inc., priority 2022, published 2024).
# Read-outs that look alike come from different tables or passages of the source.
# Experiments:
# clinical = settings: both, human, oral; for Tmax: CSF, CSF Tmax
# [1] = Phase 1 multiple-dose study, plasma PK; format: in vivo, human; settings: for half-life / Tmax / Cmax / AUC: both sexes, human, plasma, oral; for AUC: read-out: Plasma AUCtau, geometric mean (geometric CV %)
# Description: Subjects were enrolled to 1 of 2 dosage regimens. Subject enrollment was stratified by sex to ensure approximate sex balance in each cohort.
# (§1) Morning doses were administered following a standard light breakfast (e.g., milk and cereal, toast, and fruit) on all days. TID dosing (three times a day) was approximately 8 hours apart. Subjects fasted from midnight onwards, until the morning breakfast each day. There was no fluid restriction during the study, but subjects should not have consumed excessive amounts of fluid on any day.
# The Phase 1, open-label, multiple-dose study of Example 1 was conducted for Cohorts 1-3, 4A, and 4B.
# as §1, with “hours apart, and BID dosing (two times a day) was 12 hours” for “hours”, “were” for “should”, “to consume” for “have consumed”
compound,measurement,setting,value
"C[C@H]1CN2CCNCc3ccc(C(=O)NCC(F)F)c1c32 [Compound 1, (R)—N-(2,2-difluoroethyl)-7-methyl-1,2,3,4,6,7-hexahydro-[1,4]diazepino[6,7,1-hi]indole-8-carboxamide]",Kp,"clinical; CSF / free (unbound) plasma, CSF/P Cmax ratio, across all cohorts",0.663 to 0.764
same,Kp,"clinical; CSF / free (unbound) plasma, CSF/P Ctrough ratio, across all cohorts",1.26 to 1.92
same,Kp,"clinical; CSF / free drug in plasma, 6 mg, CSF/P Ctrough, mean (SD), CSF to free drug plasma ratio, Day 11, Cohort 1 (6 mg TID)",1.26
same,Kp,"clinical; CSF / free drug in plasma, 12 mg, CSF/P Ctrough, mean (SD), CSF to free drug plasma ratio, Day 11, Cohort 2 (12 mg TID)",1.31
same,Kp,"clinical; CSF / free drug in plasma, 12 mg, CSF/P Ctrough, mean (SD), CSF to free drug plasma ratio, Day 11, Cohort 3 (12 mg BID)",1.92
same,Kp,"clinical; CSF / free drug in plasma, 15 mg, CSF/P Ctrough, mean (SD), CSF to free drug plasma ratio, Day 11, Cohort 4A (15 mg BID)",1.48
same,Kp,"clinical; CSF / free drug in plasma, 18 mg, CSF/P Ctrough, mean (SD), CSF to free drug plasma ratio, Day 11, Cohort 4B (18 mg BID)",1.69
same,Tmax,"clinical; 6 mg, median (minimum, maximum), Day 11, Cohort 1 (6 mg TID)",2.52 h
same,Tmax,"clinical; 12 mg, median (minimum, maximum), Day 11, Cohort 2 (12 mg TID)",3.04 h
same,Tmax,"clinical; 12 mg, median (minimum, maximum), Day 11, Cohort 3 (12 mg BID)",2.53 h
same,Tmax,"clinical; 15 mg, median (minimum, maximum), Day 11, Cohort 4A (15 mg BID)",3.02 h
same,Tmax,"clinical; 18 mg, median (minimum, maximum), Day 11, Cohort 4B (18 mg BID)",3.06 h
same,Tmax,"clinical; Day 11, across cohorts",2.52 to 3.06 h
same,"average plasma concentrations over the dosing interval, comparability",[1]; Cohort 2 (12 mg TID) vs Cohort 4B (18 mg BID),~28%
same,"Plasma Cavg, geometric mean (geometric CV %)","[1]; Day 8, Cohort 1 (6 mg TID)",9.947 (2.6843) ng/mL
same,"Plasma Ctrough, geometric mean (geometric CV %)","[1]; Day 8, Cohort 1 (6 mg TID)",5.150 (1.6616) ng/mL
same,"Plasma Cavg, geometric mean (geometric CV %)","[1]; Day 8, Cohort 2 (12 mg TID)",26.19 (14.697) ng/mL
same,"Plasma Ctrough, geometric mean (geometric CV %)","[1]; Day 8, Cohort 2 (12 mg TID)",14.96 (9.9859) ng/mL
same,"Plasma Cavg, geometric mean (geometric CV %)","[1]; Day 8, Cohort 3 (12 mg BID)",14.42 (6.4875) ng/mL
same,"Plasma Ctrough, geometric mean (geometric CV %)","[1]; Day 8, Cohort 3 (12 mg BID)",4.892 (2.8780) ng/mL
same,"Plasma Cavg, geometric mean (geometric CV %)","[1]; Day 8, Cohort 4A (15 mg BID)",16.64 (4.4047) ng/mL
same,"Plasma Ctrough, geometric mean (geometric CV %)","[1]; Day 8, Cohort 4A (15 mg BID)",5.557 (2.3832) ng/mL
same,"Plasma Cavg, geometric mean (geometric CV %)","[1]; Day 8, Cohort 4B (18 mg BID)",20.62 (8.3690) ng/mL
same,"Plasma Ctrough, geometric mean (geometric CV %)","[1]; Day 8, Cohort 4B (18 mg BID)",7.427 (3.4830) ng/mL
same,"Plasma Cavg, geometric mean (geometric CV %)","[1]; Day 9, Cohort 1 (6 mg TID)",11.03 (3.3822) ng/mL
same,"Plasma Ctrough, geometric mean (geometric CV %)","[1]; Day 9, Cohort 1 (6 mg TID)",5.181 (1.9717) ng/mL
same,"Plasma Cavg, geometric mean (geometric CV %)","[1]; Day 9, Cohort 2 (12 mg TID)",27.22 (17.047) ng/mL
same,"Plasma Ctrough, geometric mean (geometric CV %)","[1]; Day 9, Cohort 2 (12 mg TID)",14.74 (13.800) ng/mL
same,"Plasma Cavg, geometric mean (geometric CV %)","[1]; Day 9, Cohort 3 (12 mg BID)",14.85 (6.1228) ng/mL
same,"Plasma Ctrough, geometric mean (geometric CV %)","[1]; Day 9, Cohort 3 (12 mg BID)",4.864 (2.7031) ng/mL
same,"Plasma Cavg, geometric mean (geometric CV %)","[1]; Day 9, Cohort 4A (15 mg BID)",17.84 (4.6403) ng/mL
same,"Plasma Ctrough, geometric mean (geometric CV %)","[1]; Day 9, Cohort 4A (15 mg BID)",6.497 (2.3570) ng/mL
same,"Plasma Cavg, geometric mean (geometric CV %)","[1]; Day 9, Cohort 4B (18 mg BID)",22.23 (10.604) ng/mL
same,"Plasma Ctrough, geometric mean (geometric CV %)","[1]; Day 9, Cohort 4B (18 mg BID)",7.066 (4.3229) ng/mL
same,"Plasma Cavg, geometric mean (geometric CV %)","[1]; Day 10, Cohort 1 (6 mg TID)",10.71 (2.8291) ng/mL
same,"Plasma Ctrough, geometric mean (geometric CV %)","[1]; Day 10, Cohort 1 (6 mg TID)",5.730 (1.7982) ng/mL
same,"Plasma Cavg, geometric mean (geometric CV %)","[1]; Day 10, Cohort 2 (12 mg TID)",27.73 (18.586) ng/mL
same,"Plasma Ctrough, geometric mean (geometric CV %)","[1]; Day 10, Cohort 2 (12 mg TID)",14.30 (11.743) ng/mL
same,"Plasma Cavg, geometric mean (geometric CV %)","[1]; Day 10, Cohort 3 (12 mg BID)",14.14 (6.2142) ng/mL
same,"Plasma Ctrough, geometric mean (geometric CV %)","[1]; Day 10, Cohort 3 (12 mg BID)",3.951 (2.4984) ng/mL
same,"Plasma Cavg, geometric mean (geometric CV %)","[1]; Day 10, Cohort 4A (15 mg BID)",16.70 (5.0410) ng/mL
same,"Plasma Ctrough, geometric mean (geometric CV %)","[1]; Day 10, Cohort 4A (15 mg BID)",4.372 ng/mL
same,"Plasma Cavg, geometric mean (geometric CV %)","[1]; Day 10, Cohort 4B (18 mg BID)",19.64 (6.8876) ng/mL
same,"Plasma Ctrough, geometric mean (geometric CV %)","[1]; Day 10, Cohort 4B (18 mg BID)",5.185 (2.4429) ng/mL
same,half-life,"[1]; 3 mg, Day 1, single 3 mg dose, Cohort 1, read-out: apparent terminal half-life (converted)",3.1 h
same,Tmax,"[1]; 3 mg, Day 1, single 3 mg dose, Cohort 1, read-out: plasma Tmax, median",1 h
same,Cmax,"[1]; 3 mg, Day 1, single 3 mg dose, Cohort 1, read-out: plasma geometric mean Cmax",0.0047 µg/mL
same,half-life,"[1]; 6 mg, Day 1, single 6 mg dose, Cohorts 2, 3, 4A, 4B, read-out: apparent terminal half-life (converted)",3.1 to 3.3 h
same,Tmax,"[1]; 6 mg, Day 1, single 6 mg dose, Cohorts 2, 3, 4A, 4B, read-out: plasma Tmax, median",0.98 to 1.14 h
same,Cmax,"[1]; 6 mg, Day 1, single 6 mg dose, Cohorts 2, 3, 4A, 4B, read-out: plasma geometric mean Cmax",0.0078 to 0.0124 µg/mL
same,AUC,"[1]; 6 mg, Day 8, Cohort 1 (6 mg TID)",0.0771 µg·h/mL
same,Cmax,"[1]; 6 mg, Day 8, Cohort 1 (6 mg TID), read-out: Plasma Cmax, geometric mean (geometric CV %)",0.0166 µg/mL
same,half-life,"[1]; 6 mg, Day 8, Cohort 1 (6 mg TID), read-out: Plasma T1/2, mean (SD) (converted)",4.49 h
same,Tmax,"[1]; 6 mg, Day 8, Cohort 1 (6 mg TID), read-out: Plasma Tmax, median (minimum, maximum)",1.54 h
same,AUC,"[1]; 6 mg, Day 9, Cohort 1 (6 mg TID)",0.0849 µg·h/mL
same,Cmax,"[1]; 6 mg, Day 9, Cohort 1 (6 mg TID), read-out: Plasma Cmax, geometric mean (geometric CV %)",0.0184 µg/mL
